The results in this text go back to ChEMBL document CHEMBL4033759, “Photoaffinity Labeling of the Human A2A Adenosine Receptor and Cross-link Position Analysis by Mass Spectrometry” (ACS Med Chem Lett, 2017).

Structures are written as SMILES.

Assay [1] concerns the target T1, Adenosine receptor A2a (Homo sapiens, UniProt P29274). Kind of assay: Binding affinity to C-terminal 10xHis and 1D4-tagged C-terminal-truncated human A2A adenosine receptor (1 to 316 residues) expressed in Pichia pastoris expression system at 8 nM after 1 hr by fluorescence polarization assay. To be noted: read-out: Kd(app). Background: Fluorescence polarisation rises when a labelled molecule tumbles more slowly, as on binding a larger partner.

Assay [2] addresses T1, Adenosine receptor A2a. Kind of assay: Binding affinity to human A2A adenosine receptor expressed in HEK293 cells after 1 hr by fluorescence polarization assay. In kind it is cell-based.
Assay [3] addresses T1, Adenosine receptor A2a. Kind of assay: Binding affinity to C-terminal 10xHis and 1D4-tagged C-terminal-truncated human A2A adenosine receptor (1 to 316 residues) expressed in Pichia pastoris expression system at 4 nM after 1 hr by fluorescence polarization assay. The following applies: read-out: Kd(app).
The target in assay [4] is T1, Adenosine receptor A2a. Kind of assay: Binding affinity to C-terminal 10xHis and 1D4-tagged C-terminal-truncated human A2A adenosine receptor (1 to 316 residues) expressed in Pichia pastoris expression system at 2 nM after 1 hr by fluorescence polarization assay. The following applies: read-out: Kd(app).
The target in assay [5] is T1, Adenosine receptor A2a. Kind of assay: Binding affinity to C-terminal 10xHis and 1D4-tagged C-terminal-truncated human A2A adenosine receptor (1 to 316 residues) expressed in Pichia pastoris expression system at 1 nM after 1 hr by fluorescence polarization assay. To be noted: read-out: Kd(app).
In assay [6] the target is T1, Adenosine receptor A2a. Kind of assay: Displacement of MRS5346 from C-terminal 10xHis and 1D4-tagged C-terminal-truncated human A2A adenosine receptor (1 to 316 residues) expressed in Pichia pastoris expression system after 1 hr by fluorescence polarization assay.

T1 sequence (P29274 whole entry, the tested form may be a part): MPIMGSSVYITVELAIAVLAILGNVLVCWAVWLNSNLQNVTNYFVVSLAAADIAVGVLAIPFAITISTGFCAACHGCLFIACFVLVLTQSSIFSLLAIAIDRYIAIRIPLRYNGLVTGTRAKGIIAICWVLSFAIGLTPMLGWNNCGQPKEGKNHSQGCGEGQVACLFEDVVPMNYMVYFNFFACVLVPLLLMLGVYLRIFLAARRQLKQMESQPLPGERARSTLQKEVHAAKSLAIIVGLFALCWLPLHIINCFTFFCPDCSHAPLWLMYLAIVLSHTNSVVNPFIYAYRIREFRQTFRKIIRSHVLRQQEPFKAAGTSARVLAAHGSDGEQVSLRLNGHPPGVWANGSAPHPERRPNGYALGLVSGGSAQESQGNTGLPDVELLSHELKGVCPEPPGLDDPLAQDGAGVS

As for `N=c1ccc2c(-c3ccc(C(=O)NCCNC(=O)COc4ccc(CCCn5ncc6c5nc(N)n5nc(-c7ccco7)nc65)cc4)cc3C(=O)O)c3ccc(N)c(S(=O)(=O)O)c3oc-2c1S(=O)(=O)O`, the Kd at Adenosine receptor A2a [1] was found to be 49.5 nM; at Adenosine receptor A2a [2] it was 16.5 nM; on Adenosine receptor A2a [3], 42.4 nM; at Adenosine receptor A2a [4], 30.8 nM; at Adenosine receptor A2a [5], 29 nM.
For orientation: Ki means a measure of affinity in units of concentration, obtained from inhibition or displacement. A low value points to tighter binding. As for `Nc1nc2nn(Cc3ccc(C4(C(F)(F)F)N=N4)cc3)cc2c2nc(-c3ccco3)nn12`, on Adenosine receptor A2a [6], the Ki worked out at 39.7 nM.
On the same count and under the same terms, under `Nc1nc2c(cnn2Cc2ccc(C3(C(F)(F)F)N=N3)cc2)c2nc(-c3ccco3)nn12` stands 1520 nM.
